Measurements from patent US9102648B1, “Bioavailable diacylhydrazine ligands for modulating the expression of exogenous genes via an ecdysone receptor complex” (Intrexon Corporation, priority 2003, dated 2015).
Like-named read-outs stand apart in the source and are kept apart here.

Tests used:
[1] = target: T1, Bombyx mori EcR (VP16 fusion, CVBE switch construct) (Bombyx mori, UniProt P49881); test: Z3 Assay (HEK-293 cells with CVBE and 6XEcRE LacZ, β-galactosidase reporter); details: for Fold Induction, Z3 Assay, 3.3 uM: 3.3 uM ligand; for Fold Induction, Z3 Assay, 3.3 uM / Fold Induction, Z3 Assay, 33 uM: ligand treated / DMSO treated cells; for Fold Induction, Z3 Assay, 33 uM: 33 uM ligand; for Z3 assay Rel Max FI: maximum fold induction at any concentration relative to that of GS-E ligand; for fold induction at 3.3 µM: HEK293, read-out: Fold Induction, Z3 Assay, 3.3 uM; for fold induction at 33 µM: HEK293, read-out: Fold Induction, Z3 Assay, 33 uM
T1 sequence (P49881 86-606): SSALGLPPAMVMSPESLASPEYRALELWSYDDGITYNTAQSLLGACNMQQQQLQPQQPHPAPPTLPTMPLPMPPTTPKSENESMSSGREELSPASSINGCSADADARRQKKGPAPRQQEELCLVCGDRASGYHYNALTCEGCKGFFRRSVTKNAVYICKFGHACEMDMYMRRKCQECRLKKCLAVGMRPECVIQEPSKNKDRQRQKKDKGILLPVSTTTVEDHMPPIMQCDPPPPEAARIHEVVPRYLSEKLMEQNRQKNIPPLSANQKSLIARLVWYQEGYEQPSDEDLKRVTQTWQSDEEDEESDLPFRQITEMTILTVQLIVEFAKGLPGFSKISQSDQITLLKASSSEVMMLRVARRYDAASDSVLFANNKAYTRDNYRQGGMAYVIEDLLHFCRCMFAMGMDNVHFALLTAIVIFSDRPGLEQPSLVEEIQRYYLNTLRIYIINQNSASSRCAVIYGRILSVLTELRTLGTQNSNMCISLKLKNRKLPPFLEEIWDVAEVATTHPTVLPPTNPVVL
T1 sequence (P19793 1-462 partner): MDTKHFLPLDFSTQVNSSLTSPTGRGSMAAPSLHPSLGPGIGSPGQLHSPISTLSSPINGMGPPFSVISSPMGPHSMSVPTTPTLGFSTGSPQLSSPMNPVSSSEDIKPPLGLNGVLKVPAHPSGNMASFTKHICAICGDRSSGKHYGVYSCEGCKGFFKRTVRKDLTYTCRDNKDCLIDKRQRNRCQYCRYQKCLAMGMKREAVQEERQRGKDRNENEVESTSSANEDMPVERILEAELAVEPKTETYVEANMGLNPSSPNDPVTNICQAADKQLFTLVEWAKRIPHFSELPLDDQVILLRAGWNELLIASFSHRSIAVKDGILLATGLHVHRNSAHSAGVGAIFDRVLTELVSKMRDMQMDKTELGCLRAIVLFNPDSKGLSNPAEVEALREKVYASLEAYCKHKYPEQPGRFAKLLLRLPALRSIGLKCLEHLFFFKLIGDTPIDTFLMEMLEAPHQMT

[2] = target: GAL4 DBD-CfEcR(DEF)/VP16AD-MmRXRE (Choristoneura fumiferana, UniProt O77240); test: 13B3 Assay (CHO stable cell line, luciferase reporter); details: for Fold Induction, 13B3 Assay, 3.3 uM: 3.3 uM ligand; for Fold Induction, 13B3 Assay, 3.3 uM / Fold Induction, 13B3 Assay, 33 uM: RLU ligand treated / RLU DMSO treated cells; for Fold Induction, 13B3 Assay, 33 uM: 33 uM ligand; for 13B3 assay Rel Max FI: maximum fold induction at any concentration relative to that of GS-E ligand, CHO 13B3 cells; for fold induction at 3.3 µM: read-out: Fold Induction, 13B3 Assay, 3.3 uM
Excerpt: GAL4 DBD-CfEcR(DEF)/VP16AD-MmRXRE:
The wild-type D, E, and F domains from spruce budworm Choristoneura fumiferana EcR (“CfEcR-DEF”; SEQ ID NO: 1) were fused to a GALA DNA binding domain (“Gal4DBD1-147”; SEQ ID NO: 2) and placed under the control of the SV40e promoter of pM vector (PT3119-5, Clontech, Palo Alto, Calif.). The D and E domains from Mus Musculus RXR (“MmRXR-DE”; SEQ ID NO: 11) were fused to the transactivation domain from VP16 (“VP16AD”; SEQ ID NO: 6) and placed under the control of the SV40e promoter of the pVP16 vector (PT3127-5, Clontech, Palo Alto, Calif.).
CHO cells were transiently transfected with transcription cassettes for GAL4 DBD-CJEcR(DEF) and for VP16AD-MmRXRE controlled by SV40e promoters. Stably transfected cells were selected using Hygromycin. Individually isolated CHO cell clones were transiently transfected with a GALA RE-luciferase reporter (pFR-Luc, Stratagene, La Jolla, Calif.). The 13B3 clone was selected using Zeocin.
Cells were trypsinized and diluted to a concentration of 2.5×10^4 cells mL. 100 μL of cell suspension was placed in each well of a 96 well plate and incubated at 37° C. under 5% CO2 for 24 h. Ligand stock solutions were prepared in DMSO and diluted 300 fold for all treatments. Dose response testing consisted of 8 concentrations ranging from 33 μM to 0.01 μM.
Luciferase reporter gene expression was measured 48 h after cell treatment using Bright-Glo™ Luciferase Assay System from Promega (E2650). Luminescence was detected at room temperature using a Dynex MLX microtiter plate luminometer.
Each assay was conducted in two separate wells, and the two values were averaged. Fold inductions were calculated by dividing relative light units (“RLU”) in ligand treated cells with RLU in DMSO treated cells. EC50s were calculated from dose response data using a three-parameter logistic model.

[3] = read-out: Z3 assay EC50, HEK-293 Z3 cells, β-galactosidase reporter, average of two wells
[4] = read-out: 13B3 EC50, CHO 13B3 stable cell line, luciferase reporter, 48 h, average of two wells

Q: How did the “Fold Induction, Z3 Assay, 3.3 uM” value ([1]; average of two wells) turn out when `CC(C)(C)N(NC(=O)c1ccc(Br)cc1)C(=O)c1cc(Cl)cc(Cl)c1` [RG-101759] was run?
A: 796

Q: What about the “Fold Induction, Z3 Assay, 33 uM” value ([1]; average of two wells) of the same compound?
A: 158

Q: And the “Z3 assay Rel Max FI” value ([1]; HEK-293 Z3 cells)?
A: 0.639

Q: What about the EC50 [1, 3] of the same compound?
A: 331 nM

Q: What about the “Fold Induction, 13B3 Assay, 3.3 uM” value ([2]; average of two wells) of the same compound?
A: 623

Q: And the “Fold Induction, 13B3 Assay, 33 uM” value ([2]; average of two wells)?
A: 137

Q: What about the “13B3 assay Rel Max FI” value [2] of the same compound?
A: 0.336

Q: And the EC50 [2, 4]?
A: 877 nM

Q: How did the EC50 [1] turn out when `COc1cccc(C(=O)NN(C(=O)c2cc(C)cc(C)c2)C(C)(C)C)c1CN(C)C` [RG-115497, 3,5-dimethyl-benzoic acid N-tert-butyl-N′-(2-dimethylaminomethyl-3-methoxy-benzoyl)-hydrazide] was run?
A: > 50000 nM

Q: What about the fold induction at 3.3 µM [1] of the same compound?
A: 1

Q: And the fold induction at 33 µM [1]?
A: 20

Q: What about the “Z3 assay Rel Max FI” value ([1]; HEK-293 Z3 cells) of the same compound?
A: 0.07

Q: And the EC50 [2]?
A: > 50000 nM

Q: And the “13B3 assay Rel Max FI” value [2]?
A: 0

Q: What about the fold induction at 3.3 µM [2] of the same compound?
A: 1

Q: What does the source list for `CCc1c(OC)cccc1C(=O)NN(C(=O)c1cc(C)cc(/C=N/NC(N)=O)c1)C(C)(C)C` [RG-115429, semicarbazide of N-(3-formyl-5-methyl-benzoyl)-N-tert-butyl-N′-(2-ethyl-3-methoxy-benzoyl) hydrazide]?
A: EC50 [1]: 9570 nM; fold induction at 3.3 µM [1]: 3; fold induction at 33 µM [1]: 1720; Z3 assay Rel Max FI ([1]; HEK-293 Z3 cells): 0.880; EC50 [2]: 8680 nM; 13B3 assay Rel Max FI [2]: 1.065; fold induction at 3.3 µM [2]: 18; fold induction at 33 µM ([2]; read-out: Fold Induction, 13B3 Assay, 33 uM): 1840

Q: `CCc1c(OC)cccc1C(=O)NN(C(=O)c1cc(OC)c(C)c(OC)c1)C(C)(C)C#N` [RG-115690] was tested. Which “Fold Induction, Z3 Assay, 3.3 uM” value ([1]; average of two wells) did it give?
A: 571

Q: And the “Z3 assay Rel Max FI” value ([1]; HEK-293 Z3 cells)?
A: 0.998

Q: What about the EC50 [1, 3] of the same compound?
A: 209 nM

Q: What about the “Fold Induction, 13B3 Assay, 3.3 uM” value ([2]; average of two wells) of the same compound?
A: 930

Q: And the “13B3 assay Rel Max FI” value [2]?
A: 1.181

Q: What about the EC50 [2, 4] of the same compound?
A: 632 nM

Q: What does the source list for `COc1cccc(C(=O)NN(C(=O)c2cc(C)cc(C)c2)C(C)(C)C)c1CF` [RG-115160]?
A: Fold Induction, Z3 Assay, 3.3 uM ([1]; average of two wells): 3; Fold Induction, Z3 Assay, 33 uM ([1]; average of two wells): 157; Z3 assay Rel Max FI ([1]; HEK-293 Z3 cells): 0.21; EC50 [1, 3]: > 50000 nM; Fold Induction, 13B3 Assay, 3.3 uM ([2]; average of two wells): 3; Fold Induction, 13B3 Assay, 33 uM ([2]; average of two wells): 3; 13B3 assay Rel Max FI [2]: 0; EC50 [2, 4]: > 50000 nM

Q: What does the source list for `CCc1ccc(C(=O)NN(C(=O)c2cc(F)c(F)c(F)c2)C(C)(C)C)c(F)c1` [RG-115259]?
A: Fold Induction, Z3 Assay, 3.3 uM ([1]; average of two wells): 91; Z3 assay Rel Max FI ([1]; HEK-293 Z3 cells): 0.617; EC50 [1, 3]: 427 nM; Fold Induction, 13B3 Assay, 3.3 uM ([2]; average of two wells): 3513; Fold Induction, 13B3 Assay, 33 uM ([2]; average of two wells): 2981; 13B3 assay Rel Max FI [2]: 0.702; EC50 [2, 4]: 2700 nM

Q: How did the “Fold Induction, Z3 Assay, 3.3 uM” value ([1]; average of two wells) turn out when `CCc1c(OC)cccc1C(=O)NN(C(=O)c1ccc(F)cc1)C(C)(C)C` [RG-100812] was run?
A: 1587

Q: What about the “Fold Induction, Z3 Assay, 33 uM” value ([1]; average of two wells) of the same compound?
A: 399

Q: What about the “Z3 assay Rel Max FI” value ([1]; HEK-293 Z3 cells) of the same compound?
A: 0.954

Q: What about the EC50 [1, 3] of the same compound?
A: 912 nM

Q: What about the “Fold Induction, 13B3 Assay, 33 uM” value ([2]; average of two wells) of the same compound?
A: 202

Q: Which results are given for `Cc1cc(C)cc(C(=O)N(NC(=O)c2ccc3c(c2C)CCCO3)C(C)(C)C)c1` [RG-102408]?
A: Fold Induction, Z3 Assay, 3.3 uM ([1]; average of two wells): 249; Z3 assay Rel Max FI ([1]; HEK-293 Z3 cells): 1.114; EC50 [1, 3]: 54 nM; Fold Induction, 13B3 Assay, 3.3 uM ([2]; average of two wells): 25; 13B3 assay Rel Max FI [2]: 0.662; EC50 [2, 4]: 91 nM

Q: What does the source list for `Cc1cc(C)cc(C(=O)N(NC(=O)c2ccc3c(c2)CCO3)C(C)(C)C)c1` [RG-101531]?
A: Fold Induction, Z3 Assay, 3.3 uM ([1]; average of two wells): 1130; Fold Induction, Z3 Assay, 33 uM ([1]; average of two wells): 428; EC50 [1, 3]: 85 nM; Fold Induction, 13B3 Assay, 33 uM ([2]; average of two wells): 274
